Results as given in publication PMC8507260, “A2E-induced inflammation and angiogenesis in RPE cells in vitro are modulated by PPAR-α, -β/δ, -γ, and RXR antagonists and by norbixin” (Aging (Albany NY), 2021).

Experiments:
PPAR-γ = target: T1, PPAR-γ (Homo sapiens, UniProt P37231); assay: Transactivation of over-expressed PPAR-γ, luciferase reporter in porcine RPE cells; format: cell-based, pig; design: a plasmid expressing each of the full-length PPAR isoforms; host or cells: primary porcine RPE cells; conditions: for transactivation of over-expressed PPAR-γ by the compound alone: vs DMSO control, A2E 20 μM, NBX increasing concentrations; for inhibition of PPAR-γ transactivation induced by TGZ: NBX 20 μM
T1 sequence (P37231 1-505): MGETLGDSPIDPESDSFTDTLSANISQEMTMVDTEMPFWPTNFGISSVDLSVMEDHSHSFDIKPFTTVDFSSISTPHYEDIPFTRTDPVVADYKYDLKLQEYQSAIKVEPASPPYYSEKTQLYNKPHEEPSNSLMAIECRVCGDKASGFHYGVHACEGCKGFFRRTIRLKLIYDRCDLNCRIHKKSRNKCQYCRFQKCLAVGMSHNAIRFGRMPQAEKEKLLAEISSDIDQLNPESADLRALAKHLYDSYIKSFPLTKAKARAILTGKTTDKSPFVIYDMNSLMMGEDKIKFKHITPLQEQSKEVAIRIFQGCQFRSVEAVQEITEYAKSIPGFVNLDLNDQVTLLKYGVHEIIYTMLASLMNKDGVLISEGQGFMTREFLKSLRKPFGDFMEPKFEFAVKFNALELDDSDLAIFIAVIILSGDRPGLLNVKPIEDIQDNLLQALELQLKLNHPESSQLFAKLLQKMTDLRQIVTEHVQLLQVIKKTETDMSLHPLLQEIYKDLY
Method: Then the effects of A2E on the endogenous PPAR transactivation in porcine RPE cells were investigated by means of a luciferase assay. […] The level of transactivation of PPAR-α, -β/δ, or -γ isoforms by A2E was determined by co-transfection of porcine RPE cells with a plasmid expressing each of the full-length PPAR isoforms and a plasmid expressing luciferase under the control of the PPAR response element. […] All usual chemicals, primers, and HX531 were from Sigma (St. Louis, MO, USA). Reagents for cell culture, transfection and quantitative RT-PCR were from Thermo Fisher Scientific (Waltham, MA, USA). RNA extraction NucleoSpin® RNA kit was from Macherey Nagel (Düren, Germany). ECL prime and PVDF membrane were from Amersham GE Healthcare (Buckinghamshire, UK). Primary antibodies against the following proteins were used: GAPDH (Santa Cruz Biotechnology, Inc, Dallas, TX, USA); pAKT, AKT, pERK and ERK (Cell Signaling, Danvers, MA, USA). Secondary antibodies were from Jackson ImmunoResearch (Cambridgeshire, UK). […] Cignal Pathway Reporter Assay Kits were from QIAGEN (Frederick, MD, USA). The Dual-Luciferase Reporter Assay System was purchased from Promega (Madison, WI, USA). pcDNA 3.1 (+)-PPARα and pcDNA 3.1 (+)-PPARβ/δ (pig sequence) were purchased from Genscript (Piscataway, NJ, USA). pCMV6-XL4-PPARγ (human sequence) was purchased from Origene (Rockville, MD, USA).
After one week in culture, cells were trypsinized and transferred to a 96-well plate at a density of 6 × 10^4 cells/cm^2 in DMEM2%FCS. The next day, cells were transfected using the Cignal Reporter Assay Kits for PPAR, RXR, AP-1 and NF-κB, according to the manufacturer’s specifications. To measure the specific activation of PPAR isoforms, cells were also co-transfected with PPAR-α, PPAR-β/δ or PPAR-γ expression vectors. Transfection was performed with Lipofectamine and Plus Reagent in serum-free medium. 3 h after the transfection, the medium was replaced and treatments with the molecules to assay were performed. Luciferase activity was measured the next day using the Dual-Luciferase Reporter Assay System. The measurements were performed with a luminometer (Infinite M1000 from Tecan, Mannedorf, Switzerland). Firefly: Renilla activity ratios were calculated for each condition and ratios from transcription factor-responsive reporter transfections were divided by ratios from negative control transfections to obtain relative luciferase unit, as described by the manufacturer. At least 3 independent transfections were performed in triplicate for each condition.

PPAR-α = target: T2, PPAR-α (Homo sapiens, UniProt Q07869); assay: Competition binding to PPAR-α against [3H]GW7647 (Eurofins Cerep); conditions: competition with [3H]GW7647
T2 construct: Eurofins Cerep (contract laboratory that ran the assay)
T2 sequence (Q07869 1-468): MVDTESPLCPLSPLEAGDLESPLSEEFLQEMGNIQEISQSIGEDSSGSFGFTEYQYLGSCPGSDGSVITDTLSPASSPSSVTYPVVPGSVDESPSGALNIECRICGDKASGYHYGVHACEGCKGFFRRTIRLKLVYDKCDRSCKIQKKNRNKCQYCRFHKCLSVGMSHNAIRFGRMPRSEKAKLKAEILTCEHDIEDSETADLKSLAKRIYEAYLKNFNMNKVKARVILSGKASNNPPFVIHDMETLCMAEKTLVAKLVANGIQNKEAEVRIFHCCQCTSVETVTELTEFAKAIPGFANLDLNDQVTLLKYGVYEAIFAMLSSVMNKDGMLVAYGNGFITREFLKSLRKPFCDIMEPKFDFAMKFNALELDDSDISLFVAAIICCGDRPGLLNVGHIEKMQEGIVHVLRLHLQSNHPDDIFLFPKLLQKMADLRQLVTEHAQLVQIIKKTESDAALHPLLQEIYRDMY
Source text: The binding and activity of norbixin on PPARs remains controversial, thus, firstly, we performed competition experiments in vitro between norbixin and [^3H] GW7647, an agonist of PPAR-α, and [^3H] rosiglitazone, an agonist of PPAR-γ. […] Secondly, we tested whether norbixin could induce the transactivation of PPAR-α, -β/δ or -γ in the context of RPE cells in vitro by co-transfecting porcine RPE cells with a plasmid expressing each of the full-length PPAR isoforms and a plasmid expressing luciferase under the control of the PPAR response element. […] Then, we wanted to determine if norbixin could modulate the transactivation of PPAR isoforms induced by specific agonists.
Binding studies of A2E and norbixin to RXR-α and PPAR-α and γ were performed in vitro by an external laboratory (Eurofins Cerep, Celle L’Evescault, France) through competition experiments between A2E or norbixin and [^3H]9-cis-retinoic acid as the natural ligand of RXR-α, [^3H]GW7647 an agonist of PPAR-α and [^3H]Rosiglitazone an agonist of PPAR-γ.

Row | Structure (SMILES) | transactivation of over-expressed PPAR-γ by the compound alone (PPAR-γ) | IC50 (PPAR-α) | Kd (PPAR-α) | inhibition of PPAR-γ transactivation induced by TGZ (PPAR-γ; 1 μM of TGZ) | effect on over-expressed PPAR-γ transactivation induced by A2E (PPAR-γ; A2E 20 μM + NBX 20 μM) | inhibition of PPAR-γ transactivation induced by TGZ (PPAR-γ; TGZ 10 μM)
1 | CC(C=CC1=C(C)CCCC1(C)C)=CC=CC(C)=Cc1cc(C=CC=C(C)C=CC2=C(C)CCCC2(C)C)cc[n+]1CCO [A2E, N-retinylidene-N-retinylethanolamine] | induced the transactivation | 42.7 µM | 41 µM |  |  | 
2 | CC(/C=C/C=C(C)/C=C/C(=O)O)=C\C=C\C=C(C)\C=C\C=C(C)\C=C\C(=O)O (stereo in doubt) [norbixin, 9’-cis-norbixin] | did not demonstrate any transactivation activity | 16.5 µM | 15 µM | partially inhibited | fully abolished | this effect was lost
